Test: xn = mol fraction of the nth substance listed
Conditions: 101 kPa

CCCC[n+]1ccn(C)c1.COP(=O)([O-])OC + CC(=O)O.CC(=O)[O-].CC[NH+](CC)CCO
x2 = 0
Conditions | viscosity [mPa·s]
278.15 K | 3503
288.15 K | 1361.1
293.15 K | 895
303.15 K | 426
308.15 K | 305.8
313.15 K | 224.9
318.15 K | 168.9
323.15 K | 129.4
328.15 K | 100.9
333.15 K | 79.9
338.15 K | 64.25
343.15 K | 52.35
348.15 K | 43.18
363.15 K | 25.86
368.15 K | 22.22
373.15 K | 19.25

CCCC[n+]1ccn(C)c1.O=S(=O)([N-]S(=O)(=O)C(F)(F)F)C(F)(F)F + CC(=O)[O-].CCCC[NH2+]CCO
x2 = 0
Conditions | viscosity [mPa·s]
283.15 K | 109
298.15 K | 51.73
303.15 K | 41.8
308.15 K | 34.3
313.15 K | 28.55
323.15 K | 20.5
328.15 K | 17.64
333.15 K | 15.33
338.15 K | 13.43
343.15 K | 11.85
348.15 K | 10.53
353.15 K | 9.41
358.15 K | 8.46
363.15 K | 7.65
368.15 K | 6.95
373.15 K | 6.34

CCCC[n+]1ccn(C)c1.COP(=O)([O-])OC + CCC(=O)O.CCC(=O)[O-].CC[NH+](CC)CCO
x2 = 0
Conditions | viscosity [mPa·s]
278.15 K | 3503
288.15 K | 1361.1
293.15 K | 895
298.15 K | 609
303.15 K | 426
308.15 K | 305.8
313.15 K | 224.9
318.15 K | 168.9
323.15 K | 129.4
333.15 K | 79.9
338.15 K | 64.25
348.15 K | 43.18
353.15 K | 36.02
358.15 K | 30.38
363.15 K | 25.86
368.15 K | 22.22

CCCC[n+]1ccn(C)c1.COP(=O)([O-])OC + CCCC(=O)[O-].CC[NH+](CC)CCO
x2 = 0
Conditions | viscosity [mPa·s]
278.15 K | 3503
283.15 K | 2142
288.15 K | 1361.1
293.15 K | 895
303.15 K | 426
308.15 K | 305.8
313.15 K | 224.9
323.15 K | 129.4
333.15 K | 79.9
338.15 K | 64.25
343.15 K | 52.35
353.15 K | 36.02
358.15 K | 30.38
363.15 K | 25.86
368.15 K | 22.22

CCCC[n+]1ccn(C)c1.COP(=O)([O-])OC + CCCCC(=O)[O-].CC[NH+](CC)CCO
x2 = 0
Conditions | viscosity [mPa·s]
278.15 K | 3503
283.15 K | 2142
288.15 K | 1361.1
293.15 K | 895
298.15 K | 609
308.15 K | 305.8
313.15 K | 224.9
318.15 K | 168.9
333.15 K | 79.9
338.15 K | 64.25
343.15 K | 52.35
353.15 K | 36.02
363.15 K | 25.86

CCCC[n+]1ccn(C)c1.COP(=O)([O-])OC + CCCCCC(=O)O.CCCCCC(=O)[O-].CC[NH+](CC)CCO
x2 = 0
Conditions | viscosity [mPa·s]
278.15 K | 3503
283.15 K | 2142
288.15 K | 1361.1
293.15 K | 895
308.15 K | 305.8
313.15 K | 224.9
323.15 K | 129.4
328.15 K | 100.9
338.15 K | 64.25
343.15 K | 52.35
348.15 K | 43.18
353.15 K | 36.02
368.15 K | 22.22
373.15 K | 19.25

CCCCCC(=O)O.CCCCCC(=O)[O-].CC[NH+](CC)CCO + CCCC[n+]1ccn(C)c1.COP(=O)([O-])OC
viscosity [mPa·s]
Conditions | x1 = 0.0684 | x1 = 0.1429 | x1 = 0.2213 | x1 = 0.3088 | x1 = 0.3966 | x1 = 0.4995 | x1 = 0.6088 | x1 = 0.7258 | x1 = 0.8535 | x1 = 1
278.15 K | 2021 | 1198.1 | – | 529 | 412 | 343 | – | 255.9 | 217.2 | 179
283.15 K | – | 787 | 520 | 365 | 288.7 | – | 211.6 | – | 159 | 132.6
288.15 K | 841 | 535 | – | – | 207.7 | 176.1 | 155.1 | 137.2 | 118.9 | –
293.15 K | 570 | 374 | 259.3 | 189.1 | 152.9 | – | 116 | 103.5 | – | 76.9
298.15 K | 398 | 268.2 | – | – | 114.9 | 98.9 | 88.5 | 79.5 | 70.1 | 60
303.15 K | 285.4 | 197.1 | – | 107 | 88.1 | 76.3 | – | 62.1 | 55.1 | –
308.15 K | 209.4 | – | 108.8 | 82.8 | 68.7 | 59.9 | 54.11 | 49.21 | 43.94 | 38.14
313.15 K | – | 113.2 | 84.6 | – | 54.51 | 47.69 | 43.28 | 39.55 | 35.51 | 31
318.15 K | 120 | 88.2 | 66.9 | 52.14 | – | 38.54 | 35.09 | 32.2 | – | 25.48
323.15 K | 93.3 | 69.8 | 53.69 | 42.29 | – | 31.55 | 28.81 | 26.52 | 24.02 | 21.16
328.15 K | 73.8 | 56.08 | 43.7 | 34.74 | 29.57 | – | 23.92 | 22.08 | 20.07 | –
333.15 K | 59.25 | 45.69 | 36.01 | 28.88 | 24.7 | 21.89 | 20.08 | 18.56 | 16.93 | 15.02
338.15 K | – | 37.68 | – | 24.28 | 20.85 | 18.53 | 17.01 | 15.76 | 14.4 | –
343.15 K | – | 31.44 | – | – | 17.77 | 15.82 | 14.54 | 13.48 | 12.35 | 11.01
348.15 K | 33.12 | 26.52 | 21.54 | 17.66 | 15.28 | 13.63 | 12.53 | 11.63 | 10.67 | –
353.15 K | 27.9 | 22.58 | – | 15.27 | 13.25 | – | 10.89 | – | 9.27 | –
358.15 K | 23.74 | 19.41 | – | 13.3 | 11.58 | 10.34 | 9.52 | 8.84 | 8.11 | –
363.15 K | 20.39 | 16.82 | 13.98 | 11.67 | 10.19 | 9.1 | 8.38 | 7.77 | 7.13 | 6.36
368.15 K | 17.66 | 14.68 | 12.3 | 10.31 | – | 8.06 | 7.42 | 6.87 | 6.3 | 5.61
373.15 K | 15.41 | 12.91 | – | 9.17 | 8.04 | 7.18 | 6.6 | 6.11 | 5.59 | 4.96
